Test results from patent US11679114B2, “Progestogen-only oral contraception” (Navad Life Sciences Pte, priority 2021, dated 2023).
Values joined by “and” are separate entries in the source; they are usually repeats but may differ in a detail not shown here. Equal values may be shown once.

Tested on: healthy, cyclic women
Test: Serum FSH, LH, estradiol (E2) and progesterone (P) concentrations during treatment
Type: in vivo, human
Description: The tablets prepared in Example 1 were tested in a single-center, open-label, adaptive design study to evaluate the influence on hormonal and ovarian function and vaginal bleeding pattern of different higher dosages of LNG administered once daily for 28 days over two consecutive treatment cycles in healthy, cyclic women.
Subjects started study medication intake on the first day of menstrual bleeding after the pre-treatment cycle. One tablet was taken orally, around the same time every morning, during 56 consecutive days. Study visits were planned every three (±1) days from treatment day 3 (±1) until 27 (±1) and from day 31 (±1) until day 55 (±1). At each visit the diameter of the largest follicle-like structure (FLS) and serum follicle-stimulating hormone (FSH), luteinizing hormone (LH), estradiol (E2) and P concentrations were measured.
If ovulation was observed during treatment, the subsequent luteal phase was evaluated using the Landgren criterion, i.e. the luteal phase was considered adequate when P concentrations were >16 nmol/L during at least 5 days (Landgren et al., “Hormonal effects of the 300 μg norethisterone (NET) minipill. 1. Daily steroid levels in 43 subjects during a pretreatment cycle and during the second month of NET administration,” Contraception 1980; 21: pp. 87-113). TVUS measurements of the diameter of the largest FLS (mean of two directions) were performed using a Voluson E8 Expert device (GE Medical Systems). Serum FSH, LH, E2, P and SHBG concentrations were determined by validated chemiluminescent microparticle immunoassays (Abbott, Longford, Ireland). All pharmacodynamic parameters were evaluated descriptively.

[1] = LNG 0.095 mg per day, BMI < 30 kg/m^2, entire treatment period
[2] = LNG 0.095 mg per day, BMI ≥ 30 kg/m^2, entire treatment period
[3] = LNG 0.095 mg per day, entire treatment period
[4] = LNG 0.095 mg per day, treatment period 1
[5] = LNG 0.095 mg per day, treatment period 2
[6] = LNG 0.115 mg per day, BMI < 30 kg/m^2, entire treatment period
[7] = LNG 0.115 mg per day, BMI ≥ 30 kg/m^2, entire treatment period
[8] = LNG 0.115 mg per day, entire treatment period
[9] = LNG 0.115 mg per day, treatment period 1
[10] = LNG 0.115 mg per day, treatment period 2
[11] = LNG 0.135 mg per day, BMI < 30 kg/m^2, entire treatment period
[12] = LNG 0.135 mg per day, BMI ≥ 30 kg/m^2, entire treatment period
[13] = LNG 0.135 mg per day, entire treatment period
[14] = LNG 0.135 mg per day, treatment period 1
[15] = LNG 0.135 mg per day, treatment period 2

## C#C[C@]1(O)CC[C@H]2[C@@H]3CCC4=CC(=O)CC[C@@H]4[C@H]3CC[C@@]21CC (racemic) [LNG, levonorgestrel]
LNG 0.095 mg per day
  LH peak in one of the ovulating subjects: 68.0 IU/L
[1]
  Maximum E2 concentration, Mean ± SD: 705 ± 537 pmol/L
  Mean E2 concentration, Mean ± SD: 253 ± 140 pmol/L
[2]
  Maximum E2 concentration, Mean ± SD: 484 ± 277 pmol/L
  Mean E2 concentration, Mean ± SD: 190 ± 72 pmol/L
[3]
  Maximum E2 concentration, Mean ± SD: 660 ± 500 pmol/L
  Maximum E2 concentration, Median: 580 pmol/L
  Mean E2 concentration, Mean ± SD: 241 pmol/L and 241 ± 130 pmol/L
  Mean E2 concentration, Median: 204 pmol/L
[4]
  Maximum E2 concentration, Mean ± SD: 595 ± 495 pmol/L
  Maximum E2 concentration, Median: 362 pmol/L
  Mean E2 concentration, Mean ± SD: 289 ± 195 pmol/L
  Mean E2 concentration, Median: 231 pmol/L
[5]
  Maximum E2 concentration, Mean ± SD: 384 ± 304 pmol/L
  Maximum E2 concentration, Median: 224 pmol/L
  Mean E2 concentration, Mean ± SD: 186 ± 97 pmol/L
  Mean E2 concentration, Median: 144 pmol/L
[6]
  Maximum E2 concentration, Mean ± SD: 611 ± 623 pmol/L
  Mean E2 concentration, Mean ± SD: 213 ± 160 pmol/L
[7]
  Maximum E2 concentration, Mean ± SD: 607 ± 116 pmol/L
  Mean E2 concentration, Mean ± SD: 242 ± 66 pmol/L
[8]
  Maximum E2 concentration, Mean ± SD: 610 ± 559 pmol/L
  Maximum E2 concentration, Median: 511 pmol/L
  Mean E2 concentration, Mean ± SD: 219 pmol/L and 219 ± 146 pmol/L
  Mean E2 concentration, Median: 186 pmol/L
[9]
  Maximum E2 concentration, Mean ± SD: 563 ± 551 pmol/L
  Maximum E2 concentration, Median: 481 pmol/L
  Mean E2 concentration, Mean ± SD: 269 ± 217 pmol/L
  Mean E2 concentration, Median: 244 pmol/L
[10]
  Maximum E2 concentration, Mean ± SD: 367 ± 278 pmol/L
  Maximum E2 concentration, Median: 215 pmol/L
  Mean E2 concentration, Mean ± SD: 170 ± 88 pmol/L
  Mean E2 concentration, Median: 146 pmol/L
[11]
  Maximum E2 concentration, Mean ± SD: 415 ± 244 pmol/L
  Mean E2 concentration, Mean ± SD: 178 ± 72 pmol/L
[12]
  Maximum E2 concentration, Mean ± SD: 421 ± 332 pmol/L
  Mean E2 concentration, Mean ± SD: 190 ± 87 pmol/L
[13]
  Maximum E2 concentration, Mean ± SD: 416 ± 256 pmol/L
  Maximum E2 concentration, Median: 279 pmol/L
  Mean E2 concentration, Mean ± SD: 180 pmol/L and 180 ± 73 pmol/L
  Mean E2 concentration, Median: 144 pmol/L
[14]
  Maximum E2 concentration, Mean ± SD: 369 ± 245 pmol/L
  Maximum E2 concentration, Median: 239 pmol/L
  Mean E2 concentration, Mean ± SD: 198 ± 100 pmol/L
  Mean E2 concentration, Median: 156 pmol/L
[15]
  Maximum E2 concentration, Mean ± SD: 302 ± 184 pmol/L
  Maximum E2 concentration, Median: 242 pmol/L
  Mean E2 concentration, Mean ± SD: 162 ± 62 pmol/L
  Mean E2 concentration, Median: 148 pmol/L
All dosages (0.095, 0.115, 0.135 mg per day)
  Subjects with mean E2 concentrations ≥110 pmol/L (30 pg/mL): 80-90%
All dosages, except in one subject in the 0.115 mg group, 73.4 pmol/L = 20 pg/mL
  Mean E2 concentrations in all subjects: > 73.4 pmol/L
All groups, except 2 ovulating subjects (0.095 mg), the subject with abnormal ovulation (0.135 mg) and one other subject
  Individual P concentrations during treatment: below 5 nmol/L
All groups, except for an LH peak in one ovulating subject in the 0.095 mg group
  Individual LH concentrations: below 12.1 IU/L
All treatment groups, 110 pmol/L (30 pg/mL) = lower limit assumed not to lead to accelerated bone loss
  Mean E2 concentrations in all LNG treatment groups: above 110 pmol/L
